Laboratory results published in patent US20210060125A1, “METHOD AND USE OF PnPP-19 FOR PREVENTING AND TREATING EYE DISEASES” (priority 2019, published 2021).
Entries after “also recorded” stand apart in the source; their conditions may differ.

Key:
[1] = tested on: Hen's egg chorioallantoic membranes (HET-CAM); assay: HET-CAM ocular irritation model; design: key to Irritability classification: NI = Non- irritant; SI = severely irritant; conditions: for OII ± SD (mean cumulative score) / OII ± SD: mean ± S.D., n = 6
Description: Hen's egg—chorioallantoic membranes (HET-CAM) were used to assess anti-irritant properties of different concentrations of PnPP-19. PnPP-19 was dissolved in 300 μL of saline in order to achieve the concentration of 40 μg, 80 μg, 160 μg, 320 μg, in 20 μL (the volume of one eye drop). Sodium chloride 0.9% (NaCl) was used as negative control and sodium hydroxide 0.1 M (NaOH) as a positive control.
The reactions were classified according to a semi-quantitatively analysis, on a scale from 0 (no reaction) to 3 (strong reaction). The ocular irritation index (OII) was then calculated by the following expression: […]
where h is time (in seconds) from the beginning of bleeding; l lysis, and c coagulation. The following classification was used: OII≤0.9: […]; 0.9<OII≤4.9: moderately irritant; 4.9<OII≤8.9: irritant; 8.9<OII≤21: severely irritant.

[2] = tested on: HA-induced glaucoma in rats; conditions: cited from earlier work
[3] = tested on: Human glaucoma; conditions: cited from earlier work
[4] = tested on: ocular hypertensive rabbits; conditions: hypertonic saline into the vitreous body; cited from earlier work
[5] = tested on: Glaucomatous dogs; conditions: cited from earlier work
[6] = tested on: normotensive Wistar rats; assay: In vivo single-dose acute toxicology, topical eye drops; design: species or system rat; conditions: single topical dose 40, 80, 160 μg in 20 μL
Description: Single-dose topical application of PnPP-19 was dissolved in 300 of saline at the dose of 40, 80 and 160 μg, in 20 μL of saline, in the form of eye drops, was evaluated in normotensive Wistar rats (150-200 g), n=4 rats per dose group. Fundoscopy and electroretinography were performed at days 0, 1, 7 and 15 after PnPP-19 administration. At day 15, eye tissue was collected to histopathological analysis. Day 0 was considered as a control time point for any dose to evaluate for observed differences.

[7] = tested on: glaucomatous male Wistar rats; type: in vivo, rat; conditions: 72 hours after PnPP-19 instillation
Description: The effectiveness of the PnPP-19 was first evaluated by measuring the changes in IOP of glaucomatous male Wistar rats (180-220 g, 7 to 10 weeks old, n=6). Glaucoma was induced in the right eye by the injection of 30 μL hyaluronic acid (HA) (10 mg/mL) into the anterior chamber through the clear cornea once per week for 3 weeks on the same calendar day and at the same time. Evaluation of the IOP was performed using a TonoPen (Tono-PenVet, Reichert). To perform the measurements, unsedated animals were topically anesthetized by the instillation of 0.5% proxymetacaine hydrochloride. Three IOP readings (with SE less than 5%) were taken for each eye. The average of these three readings was considered the corresponding value of the IOP. Electroretinogram (ERG) was recorded before and after the glaucoma induction. Eyes were enucleated and corneas and retinas were prepared for histology. The groups of treatment were defined as Healthy or non-glaucomatous—left eye, where HA was not applied; Glaucomatous, Non-treated—right eye, where HA was applied, treated with control (vehicle, saline); […]
The effects of PnPP-19 on rat's vision at the end of the HA glaucomatous model was analyzed by ERG to evaluate if the peptide impacts the visual acuity. […]

[8] = tested on: male normotensive Wistar rat eye; assay: Eye permeation and diffusion of fluorescence-labeled PnPP-19; type: in vivo; conditions: 80 μg/20 μl eye drop in saline; 3 hours
Description: Fluorescence-labeled PnPP-19 (FITC) was applied topically in form of eye drops (peptide dissolved in saline) in a dose of 80 μg/20 μl in the male normotensive Wistar rat eye. Vehicle (saline) was applied in the contralateral eye to be used as control. After 3 hours the eyes were enucleated and prepared for histological analysis using fluorescence microscope APOTOME.2 ZEISS.

[9] = tested on: male Wistar rats with retinal ischemia; assay: Ischemic retina model, study 2 (pre-treatment or prevention); type: in vivo, rat; conditions: pre-treatment; 3 cd.s.m−2, scotopic; n=6
Description: The potential neuroprotective effect of PnPP-19 in the retina was investigated with an animal model of ischemic injury. For this purpose, male Wistar rats were treated with PnPP-19 either before or after induction of ischemia (80 μg in 20 μl (one eye drop) once a day administration for seven days).
Male Wistar rats (180-200 g) were anesthetized intraperitoneally with ketamine hydrochloride 90 mg/kg and xylazine hydrochloride 10.0 mg/kg and the retinas were made ischemic according to the protocols of Hughes (HUGHES, W. F. Quantitation of ischemic damage in the rat retina. Exp Eye Res, 53(5): 573-82, 1991), and of Louzada-Junior et al. (Louzada-Junior, P., Dias, J. J., Santos, W. F., Lachat, J. J., Bradford, H. F., Coutinho-Netto, J. Glutamate Release in Experimental Ischaemia of the Retina: An Approach Using Microdialysis. J Neurochem, 59(1):358-63, 1992). IOP was elevated by cannulating the eye anterior chamber, with a sterile 27-gauge needle attached to a manometer/pump connected to an air reservoir (HUGHES, W. F. Quantitation of ischemic damage in the rat retina. Exp Eye Res, 53(5): 573-82, 1991) elevating the IOP to 155 mmHg for 40 min evoking ischemia (indicated by whitening of the eye fundus as blood flow is interrupted). […]
We measured different layer thicknesses to quantify the degree of cell loss to measure the ischemic damage in the rat retina. […]

[10] = tested on: healthy subjects; assay: Phase 1 clinical trial, safety, tolerability and IOP; type: in vivo, human
Description: Twelve healthy subjects, 6 males and 6 females, were selected to evaluate the safety and tolerability of PnPP-19. PnPP-19 were applied as one eye drop per day (with 250 μg of peptide in 50 μL saline (0.5%)) for 7 days, in one eye, while vehicle (the formulation without the peptide) was applied in the contralateral eye. The eye were randomized in a double-blind way to each intervention.
The safety was analyzed by an ophthalmologist thought a slit lamp in conjunction with a biomiscrscope to examine the anterior and posterior segment of the eye. This procedure was performed in both eyes, in each subject, in the days 1, 2, 3, 4 and 7 of the treatment.
The tolerability was analyzed thought a daily tolerability questionnaire. […] One patient reported mild headache, that last minutes.
IOP was measured with a non-contact tonometer before and 1,2,4 6 and 24 hours after the instillations of PnPP-19 or vehicle.

[11] = all concentrations tested (40-320 μg in 20 μL)
[12] = daily tolerability questionnaire, n=12

Molecule: [Na+].[OH-] [0.1M NaOH, sodium hydroxide, reference compound]
- Irritability classification ([1]; 0.1 M, positive control): SI
- irritancy ranking in words ([1]; 0.1 M, positive control): severely irritant (8.9<OII≤21: severely irritant)
- OII ± SD (mean cumulative score) ([1]; 0.1 M, positive control): 21.11 ± 0.32
- OII ± SD (mean cumulative score) ([1]; 0.1 M, positive control, listed as 0.1 M NaOH): 21.11±0.32

Molecule: CC(C)OC(=O)CCC/C=C\C[C@@H]1[C@@H](CC[C@@H](O)CCc2ccccc2)[C@H](O)C[C@@H]1O [Latanoprost]
- Average IOP reduction (%) [2]: 28.1%
- Average IOP reduction (%) [3]: 13.1%
- effect on ocular hypertension [4]: not

Molecule: O=C(CCC/C=C\C[C@@H]1[C@@H](CC[C@@H](O)CCc2ccccc2)[C@H](O)C[C@@H]1O)OCCCCO[N+](=O)[O-] [Latanoprostene Bunod]
- Average IOP reduction (%) [3]: 31%
- reduction in IOP [5]: 44%
- effect on ocular hypertension [4]: significantly blunted

Molecule: CC(C)(C)NC[C@H](O)COc1nsnc1N1CCOCC1 [Timolol]
- Average IOP reduction (%) [2]: 25.3%
- Average IOP reduction (%) [3]: 18%

Molecule: Ac-GERRQYFWIAWYKLANSKK-NH2 (N-terminus and C-terminus assumed) [PnPP-19, Gly Glu Arg Arg Gln Tyr Phe Trp Ile Ala Trp Tyr Lys Leu Ala Asn Ser Lys Lys]
- Irritability classification ([1]; 40 μg in 20 μL saline): NI
- OII ± SD ([1]; 40 μg in 20 μL saline): ≤0.9 ± 0.0
- Irritability classification ([1]; 80 μg in 20 μL saline): NI
- OII ± SD ([1]; 80 μg in 20 μL saline): ≤0.9 ± 0.0
- Irritability classification ([1]; 160 μg in 20 μL saline): NI
- OII ± SD ([1]; 160 μg in 20 μL saline): ≤0.9 ± 0.0
- Irritability classification ([1]; 320 μg in 20 μL saline): NI
- OII ± SD ([1]; 320 μg in 20 μL saline): ≤0.9 ± 0.0
- irritancy ranking in words [1, 11]: non-irritant
- mean cumulative scores (OII) [1, 11]: ≤ 0.9
- signs of vascular response ([1]; all concentrations tested, observed up to 5 min): did not show any signs of vascular response
- Histological morphology of cornea and retina ([6]; day 15, n=4): keeps the same morphology; also recorded: does not alter the retinal morphology; also recorded: does not alter the cornea morphology
- Fundoscopy vs day 0 ([6]; days 1, 7, 15, n=4 per dose): No difference was observed; also recorded: does not affect retinal vessels
- Electroretinography a and b wave vs day 0 ([6]; up to day 15): absence of retinal nerve damage
- Dark-adapted ERG vs glaucomatous non-treated group [7]: no difference
- Fluorescence in cornea, vitreous body and retina vs vehicle [8]: permeates the cornea and reaches the retina
- ERG b-amp/a-amp ratio [9]: an increasing tendency in b/a ratio; also recorded: prevents vision loss
- Safety, slit lamp examination of anterior and posterior segment ([10]; 250 μg in 50 μL saline (0.5%), one drop per day for 7 days, n=12): no safety finding
- Blood pressure, heart rate, weight, physical examination, electrocardiogram ([10]; 250 μg in 50 μL, one drop per day for 7 days, n=12): no difference in blood pressure, heart rate, weight, physical examination and electrocardiogram results
- Relation of reported adverse events to treatment (investigator) ([10]; daily tolerability questionnaire, four events reported): none of those adverse events were related to PnPP-19
- Eye burning after instillation [10, 12]: in one patient
- Puritis in the eye after instillation [10, 12]: one patient

Molecule: Latanoprost
- reduction in IOP [5]: 27%
